Experimental data: US20250213574A1, “THERAPEUTIC COMBINATIONS COMPRISING UBIQUITIN- SPECIFIC-PROCESSING PROTEASE 1 (USP1) INHIBITORS AND CHEMOTHERAPY AGENTS” (KSQ Therapeutics, Inc., priority 2022, published 2025)
Like-named read-outs stand apart in the source and are kept apart here.

How the values were obtained:
Format in all cases: cell-based
[1] = tested on: ACCMESO1; assay: Colony formation (CFU) assay, ACCMESO1; settings: ACC-MESO-1, 336 h; ACCMESO1, pleura; CFU ~14 days; wells with DMSO or 300 nM Compound 1; read-out: Chemotherapy nM IC50s
Description: (§1) In vitro experiments were conducted using the colony formation unit (CFU) assay on various cell lines. The CFU assay involved first establishing what cell plating density enabled the development of clearly interspersed colonies on a six-well plate when left to grow for around 14 days. […] At or around day 14 when clearly interspersed colonies were visible in the DMSO-treated wells, the cells were fixed and stained using 0.1% crystal violet in 10% ethanol for 20 minutes at room temperature. The plates were imaged then the amount of crystal violet stain in each well was quantified by extracting the crystal violet into 10% acetic acid and the absorbance measured at 565 nm.
(§2) For certain cell lines, multiple IC50 values were taken, and those are separated by commas. Synergy scores are in parentheticals.

[2] = tested on: COV362; assay: Colony formation (CFU) assay, COV362; settings: 336 h; COV362, ovary; CFU ~14 days; wells with DMSO or 300 nM Compound 1; read-out: Chemotherapy nM IC50s
Description: as §1, §2

[3] = tested on: HCC1937; assay: Colony formation (CFU) assay, HCC1937; settings: HCC1937, breast, CFU ~14 days, wells with DMSO or 300 nM Compound 1, read-out: Chemotherapy nM IC50s
Description: as §1, §2

[4] = tested on: KALS1; assay: Colony formation (CFU) assay, KALS1; settings: Homo sapiens, KALS-1, 336 h; KALS1, nervous system; CFU ~14 days; wells with DMSO or 300 nM Compound 1; read-out: Chemotherapy nM IC50s
Description: as §1, §2

[5] = tested on: MERO14; assay: Colony formation (CFU) assay, MERO14; settings: CFU ~14 days, wells with DMSO or 300 nM Compound 1, read-out: Chemotherapy nM IC50s
Description: as §1, §2

[6] = tested on: MSTO211H; assay: Colony formation (CFU) assay, MSTO211H; settings: pleura, CFU ~14 days, wells with DMSO or 300 nM Compound 1, read-out: Chemotherapy nM IC50s
Description: as §1, §2

[7] = tested on: NCIH2452; assay: Colony formation (CFU) assay, NCIH2452; settings: Homo sapiens, NCI-H2452, 336 h; NCIH2452, pleura; CFU ~14 days; wells with DMSO or 300 nM Compound 1; read-out: Chemotherapy nM IC50s
Description: as §1, §2

[8] = tested on: OVSAHO; assay: Colony formation (CFU) assay, OVSAHO; settings: Homo sapiens, 336 h, ovary, CFU ~14 days, wells with DMSO or 300 nM Compound 1, read-out: Chemotherapy nM IC50s
Description: as §1, §2

[9] = tested on: UWB1289; assay: Colony formation (CFU) assay, UWB1289; settings: 336 h; UWB1289, ovary; CFU ~14 days; wells with DMSO or 300 nM Compound 1; read-out: Chemotherapy nM IC50s
Description: as §1, §2

[10] = tested on: BECKER; assay: Colony formation (CFU) assay, BECKER; settings: CFU ~14 days, wells with DMSO or 300 nM Compound 1, read-out: Chemotherapy nM IC50s
Description: as §1, §2

[11] = tested on: NCIH1650; assay: Colony formation (CFU) assay, NCIH1650; settings: NCIH1650, lung, CFU ~14 days, wells with DMSO or 300 nM Compound 1, read-out: Chemotherapy nM IC50s
Description: as §1, §2

[12] = tested on: NCIH1915; assay: Colony formation (CFU) assay, NCIH1915; settings: NCIH1915, lung, CFU ~14 days, wells with DMSO or 300 nM Compound 1, read-out: Chemotherapy nM IC50s
Description: as §1, §2

[13] = tested on: U251MG; assay: Colony formation (CFU) assay, U251MG; settings: nervous system, CFU ~14 days, wells with DMSO or 300 nM Compound 1, read-out: Chemotherapy nM IC50s
Description: as §1, §2

[14] = tested on: 647V; assay: Colony formation (CFU) assay, 647V; settings: Homo sapiens, 336 h, bladder, CFU ~14 days, wells with DMSO or 300 nM Compound 1, read-out: Chemotherapy nM IC50s
Description: as §1, §2

[15] = tested on: HCC1806; assay: Colony formation (CFU) assay, HCC1806; settings: HCC1806, breast, CFU ~14 days, wells with DMSO or 300 nM Compound 1, read-out: Chemotherapy nM IC50s (converted)
Description: as §1, §2

[16] = tested on: SUM149PT; assay: Colony formation (CFU) assay, SUM149PT; settings: breast
Description: as §1, §2

[17] = tested on: A549; assay: Colony formation (CFU) assay, A549; settings: Homo sapiens, 336 h; A549, lung; CFU ~14 days; wells with DMSO or 300 nM Compound 1; read-out: Chemotherapy nM IC50s
Description: as §1, §2

[18] = tested on: CAPAN2; assay: Colony formation (CFU) assay, CAPAN2; settings: CAPAN2, pancreas, CFU ~14 days, wells with DMSO or 300 nM Compound 1, read-out: Chemotherapy nM IC50s
Description: as §1, §2

[19] = tested on: HPAC; assay: Colony formation (CFU) assay, HPAC; settings: Homo sapiens, 336 h, pancreas, CFU ~14 days, wells with DMSO or 300 nM Compound 1, read-out: Chemotherapy nM IC50s
Description: as §1, §2

[20] = tested on: MDAMB231; assay: Colony formation (CFU) assay, MDAMB231; settings: MDAMB231, breast, CFU ~14 days, wells with DMSO or 300 nM Compound 1, read-out: Chemotherapy nM IC50s
Description: as §1, §2

## COc1cccc2c1C(=O)c1c(O)c3c(c(O)c1C2=O)C[C@@](O)(C(=O)CO)C[C@@H]3O[C@H]1C[C@H](N)[C@H](O)[C@H](C)O1 [Dox., doxorubicin]
[1]
  IC50: 19 nM
[2]
  IC50: 108 nM
[3]
  IC50: 4 nM
[3]; Homo sapiens, HCC1937, 336 h
  IC50: 8 nM
[4]
  IC50: 52 nM
[5]; 336 h
  IC50: 17 nM
[5]
  IC50: 14 nM
[6]; Homo sapiens, MSTO-211H, 336 h
  IC50: 16 nM
[6]
  IC50: 8 nM
[7]
  IC50: 21 nM
[8]
  IC50: 147 nM
[9]
  IC50: 76 nM

## COc1cc([C@@H]2c3cc4c(cc3[C@@H](O[C@@H]3O[C@@H]5CO[C@@H](C)O[C@H]5[C@H](O)[C@H]3O)[C@H]3COC(=O)[C@H]23)OCO4)cc(OC)c1O [Etop., etoposide]
[10]
  IC50: 837 nM
[11]
  IC50: 270 nM
[12]
  IC50: 500 nM
[13]
  IC50: 583 nM

## Nc1ccn([C@@H]2O[C@H](CO)[C@@H](O)C2(F)F)c(=O)n1 [Gem., gemcitabine]
[14]
  IC50: 2 nM
[15]; Homo sapiens, 336 h
  IC50: < 1 nM
[16]; Homo sapiens, 336 h, CFU ~14 days, wells with DMSO or 300 nM Compound 1, read-out: Chemotherapy nM IC50s
  IC50: 1 nM
[16]; chemotherapy agent in combination with 300 nM Compound 1
  synergy score: (−1)

## CC(=O)O[C@H]1C(=O)[C@@]2(C)[C@H]([C@H](OC(=O)c3ccccc3)[C@]3(O)C[C@H](OC(=O)[C@H](O)[C@@H](NC(=O)c4ccccc4)c4ccccc4)C(C)=C1C3(C)C)[C@]1(OC(C)=O)CO[C@@H]1C[C@@H]2O [Pacli., paclitaxel]
[17]
  IC50: 2 nM
[18]
  IC50: < 1 nM
[18]; Homo sapiens, Capan-2, 336 h
  IC50: 2 nM
[2]
  IC50: 13 nM
[15]
  IC50: < 1 nM
[15]; Homo sapiens, HCC1806, 336 h
  IC50: 1 nM
[19]
  IC50: 3 nM
[20]; Homo sapiens, MDA-MB-231, 336 h
  IC50: 1 nM
[20]
  IC50: < 1 nM
[11]; Homo sapiens, NCI-H1650, 336 h
  IC50: 1 nM
[11]
  IC50: < 1 nM
[12]; NCI-H1915, 336 h
  IC50: < 1 nM
[8]
  IC50: 78 nM
[9]
  IC50: 43 nM
